From paper PMC4556614 (PLoS ONE, 2015)

How the values were obtained:
OCT2 [1] = biological target: T1, OCT2 (Homo sapiens, UniProt O15244); experiment: in vitro
Experimental: (§1) For the transport assays HEK cell lines stably transfected with human OCT2 (HEK-OCT2) or the vector only (HEK-VC) were used. The HEK-OCT2 cell line was established and characterized previously. HEK-OCT2 and HEK-VC cells were seeded in poly-D-lysine (Sigma Aldrich, Taufkirchen, Germany) coated 48-well-plates at a density of 1.2 x 10^5 cells/well. […] Uptake was stopped by washing the cells three times with ice-cold uptake buffer. Afterwards, cells were lysed with 5 mM Tris buffer (pH 7.3) containing 0.1% Triton X-100. The intracellular accumulation of radioactivity was determined by liquid scintillation counting (PerkinElmer, Rodgau-Jügesheim, Germany) and protein concentration of each lysate was measured with bicinchonic acid assay (BCA Protein Assay Kit, Thermo Fisher Scientific, Waltham, MA, USA). We performed two to eight experiments each on at least two separate days, i.e., n = 4–16.
Experimental half-maximal inhibitory concentrations (IC50 values) were measured as the substrate uptake in the presence of increasing concentrations of test drugs. These experiments were performed as described above (three experiments each on two separate days, i.e., n = 6). IC50 values were calculated with GraphPad Prism 5.0 (GraphPad Software, San Diego, CA, USA). IC50 was estimated by a sigmoidal inhibition model and was fit to the equation V = V 0 / (1 + (I / IC50 ) ^n ) by nonlinear regression. V is the net uptake in the presence of the inhibitor, V 0 is the net uptake in the absence of the inhibitor, I is the concentration of the inhibitor and n is the slope.

OCT2 [2] = biological target: T1, OCT2; experiment: Inhibition of OCT2-mediated [3H]MPP+ uptake in HEK-OCT2 cells
Experimental: as §1

[3] = test drug 20 µM, MPP+ 50 μM, 3 min, net uptake HEK-OCT2 minus HEK-VC
[4] = test drug 200 µM, MPP+ 50 μM, 3 min, net uptake HEK-OCT2 minus HEK-VC
[5] = human, pH 7.3, probe [14C]metformin, 1000 µM, % Inhibition of OCT2-dependent MF uptake at 20 µM (mean ± SEM), test drug 20 µM, metformin 1000 μM, 3 min, net uptake HEK-OCT2 minus HEK-VC
[6] = human, pH 7.3, probe [14C]metformin, 1000 µM, % Inhibition of OCT2-dependent MF uptake at 200 µM (mean ± SEM), test drug 200 µM, metformin 1000 μM, 3 min, net uptake HEK-OCT2 minus HEK-VC
[7] = human, pH 7.3, probe [3H]MPP+, 50 µM

T1 sequence (O15244 whole entry): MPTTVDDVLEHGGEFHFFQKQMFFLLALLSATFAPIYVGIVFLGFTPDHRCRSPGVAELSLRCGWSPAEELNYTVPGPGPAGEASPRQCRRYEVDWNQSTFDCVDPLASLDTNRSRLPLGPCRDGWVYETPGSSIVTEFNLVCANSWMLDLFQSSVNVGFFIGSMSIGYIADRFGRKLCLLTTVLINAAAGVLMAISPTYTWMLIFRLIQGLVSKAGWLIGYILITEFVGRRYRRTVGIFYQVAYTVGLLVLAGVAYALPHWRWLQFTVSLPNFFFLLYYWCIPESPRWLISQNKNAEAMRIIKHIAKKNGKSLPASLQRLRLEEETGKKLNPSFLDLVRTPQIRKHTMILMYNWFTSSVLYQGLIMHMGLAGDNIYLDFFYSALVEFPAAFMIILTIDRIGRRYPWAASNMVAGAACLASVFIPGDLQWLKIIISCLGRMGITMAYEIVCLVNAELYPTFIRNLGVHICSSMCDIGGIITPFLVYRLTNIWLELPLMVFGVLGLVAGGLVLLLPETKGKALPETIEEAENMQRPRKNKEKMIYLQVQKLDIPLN

SMILES | % Inhibition of OCT2-dependent MF uptake at 20 µM (mean ± SEM) (OCT2 [1]; human, pH 7.3) | % Inhibition of OCT2-dependent MF uptake at 200 µM (mean ± SEM) (OCT2 [1]; human, pH 7.3) | % Inhibition of OCT2-dependent MPP+ uptake at 20 µM (mean ± SEM) (OCT2 [2]; [3]) [%] | % Inhibition of OCT2-dependent MPP+ uptake at 200 µM (mean ± SEM) (OCT2 [2]; [4]) [%] | further results
C[C@H]1c2cccc(O)c2C(=O)C2=C(O)[C@]3(O)C(=O)C(C(N)=O)=C(O)[C@@H](N(C)C)[C@@H]3[C@@H](O)[C@@H]21 [Doxycycline] | -21.8 ± 1.9 | 1.9 ± 9.1 | -12.9 ± 13.1 | -16.6 ± 11.7 | 
C[C@]12CCC(=O)C=C1[C@@H]1C[C@@H]1[C@H]1[C@@H]3[C@@H]4C[C@@H]4[C@@]4(CCC(=O)O4)[C@@]3(C)CC[C@@H]12 [Drospirenone] |  |  |  |  | inhibition at 3 min, 20 µM (OCT2 [1]; [5]): > 85%; inhibition at 3 min, 200 µM (OCT2 [1]; [6]): 99.1 ± 0.7%; % Inhibition of OCT2-dependent MF uptake at 20 µM (mean ± SEM) (OCT2 [1]; test drug 20 µM, metformin 1000 μM, 3 min, net uptake HEK-OCT2 minus HEK-VC): 88.0 ± 7.3%; inhibition at 3 min, 20 µM (OCT2 [2]; [7]): 0%; inhibition at 3 min, 200 µM (OCT2 [2]; [7]): 42.6 ± 1.4%
CNCC[C@H](Oc1cccc2ccccc12)c1cccs1 [Duloxetine] | 76.5 ± 0.9 | 98.3 ± 0.2 |  |  | % Inhibition of OCT2-dependent MPP+ uptake at 20 µM (mean ± SEM) (OCT2 [2]; human, pH 7.3): 23.3 ± 6.0; % Inhibition of OCT2-dependent MPP+ uptake at 200 µM (mean ± SEM) (OCT2 [2]; human, pH 7.3): 86.4 ± 5.1
CCOC(=O)[C@H](CCc1ccccc1)N[C@@H](C)C(=O)N1CCC[C@H]1C(=O)O [Enalapril] | 7.5 ± 2.3 | 34.2 ± 4.5 | 7.1 ± 7.4 | 20.2 ± 5.6 | 
CN(C)CCC[C@@]1(c2ccc(F)cc2)OCc2cc(C#N)ccc21 [Escitalopram] | 62.6 ± 9.2 | 93.8 ± 3.6 | -26.3 ± 7.9 | 26.0 ± 10.1 | 
C[C@]12CC[C@@H]3c4ccc(O)cc4CC[C@H]3[C@@H]1CC[C@@H]2O [Estradiol] | 57.9 ± 5.4 | 66.6 ± 2.1 | 10.6 ± 4.2 | 19.0 ± 6.5 | 
C#C[C@]1(O)CC[C@H]2[C@@H]3CCc4cc(O)ccc4[C@H]3CC[C@@]21C [Ethinylestradiol] | 31.8 ± 8.1 | 62.2 ± 13.1 | 14.0 ± 8.8 | 46.8 ± 6.3 | 
Cc1ccc(-c2ncc(Cl)cc2-c2ccc(S(C)(=O)=O)cc2)cn1 [Etoricoxib] | 64.1 ± 6.8 | 99.2 ± 2.7 | 2.3 ± 4.0 | 72.4 ± 2.2 | 
O=C1[C@H](CC[C@H](O)c2ccc(F)cc2)[C@@H](c2ccc(O)cc2)N1c1ccc(F)cc1 [Ezetimibe] |  |  |  |  | inhibition at 3 min, 20 µM (OCT2 [1]; [5]): -6.8 ± 9.7%; inhibition at 3 min, 200 µM (OCT2 [1]; [6]): 0.2 ± 10%; inhibition at 3 min, 20 µM (OCT2 [2]; [7]): -12.6 ± 12.4%; inhibition at 3 min, 200 µM (OCT2 [2]; [7]): -13.2 ± 11.5%
CCOC(=O)C1=C(C)NC(C)=C(C(=O)OC)C1c1cccc(Cl)c1Cl (stereo not drawn) [Felodipine] | 4.9 ± 6.1 | 15.9 ± 12.1 | -8.8 ± 12.0 | -16.8 ± 10.8 | 
CC(C)OC(=O)C(C)(C)Oc1ccc(C(=O)c2ccc(Cl)cc2)cc1 [Fenofibrate] | 43.0 ± 9.9 | 73.4 ± 4.7 | 12.8 ± 5.0 | 32.0 ± 5.7 | 
CN1C(=O)CN=C(c2ccccc2F)c2cc([N+](=O)[O-])ccc21 [Flunitrazepam] | 74.1 ± 3.1 | 92.9 ± 0.9 | 5.1 ± 8.4 | 57.5 ± 6.6 | 
CNCCC(Oc1ccc(C(F)(F)F)cc1)c1ccccc1 (stereo not drawn) [Fluoxetine] | 79.0 ± 0.9 | 98.5 ± 1.2 | 20.2 ± 3.5 | 91.8 ± 2.9 | 
OCCN1CCN(CCCN2c3ccccc3Sc3ccc(C(F)(F)F)cc32)CC1 [Fluphenazine] |  | 99.3 ± 0.4 | 39.3 ± 7.0 | 94.3 ± 3.3 | 
CC(C)n1c(/C=C/C(O)CC(O)CC(=O)O)c(-c2ccc(F)cc2)c2ccccc21 (stereo not drawn) [Fluvastatin] | -21.1 ± 10.3 | 32.5 ± 8.1 | -10.1 ± 6.1 | 5.8 ± 9.1 | 
NCC1(CC(=O)O)CCCCC1 [Gabapentin] | 9.1 ± 8.2 | 37.6 ± 4.2 |  |  | % Inhibition of OCT2-dependent MPP+ uptake at 20 µM (mean ± SEM) (OCT2 [2]; human, pH 7.3): -8.4 ± 9.6; % Inhibition of OCT2-dependent MPP+ uptake at 200 µM (mean ± SEM) (OCT2 [2]; human, pH 7.3): -12.5 ± 9.4
COc1ccc2c3c1O[C@H]1C[C@@H](O)C=C[C@@]31CCN(C)C2 [Galantamine] | 51.5 ± 2.8 | 92.5 ± 1.2 | -11.7 ± 9.4 | 12.3 ± 7.0 | 
COc1ccc(Cl)cc1C(=O)NCCc1ccc(S(=O)(=O)NC(=O)NC2CCCCC2)cc1 [Glibenclamide] | 38.7 ± 11.9 | 87.9 ± 3.2 | -27.7 ± 5.0 | -31.1 ± 1.7 | 
CCC1=C(C)CN(C(=O)NCCc2ccc(S(=O)(=O)NC(=O)N[C@H]3CC[C@H](C)CC3)cc2)C1=O [Glimepiride] | 66.8 ± 2.9 | 65.6 ± 4.6 | 31.1 ± 7.6 | 53.8 ± 15.2 | 
O=C(CCCN1CCC(O)(c2ccc(Cl)cc2)CC1)c1ccc(F)cc1 [Haloperidol] | 6.4 ± 8.9 | 66.9 ± 5.3 | -11.2 ± 5.0 | -10.6 ± 5.1 | 
NS(=O)(=O)c1cc2c(cc1Cl)NCNS2(=O)=O [Hydrochlorothiazide] | -34.7 ± 16.9 | -38.6 ± 8.5 | -55.4 ± 10.2 | -36.6 ± 7.4 | 
CC(C)Cc1ccc(C(C)C(=O)O)cc1 (stereo not drawn) [Ibuprofen] | 23.4 ± 6.7 | 29.6 ± 4.1 | -5.8 ± 8.0 | -0.3 ± 7.5 | 
CCCCC1=NC2(CCCC2)C(=O)N1Cc1ccc(-c2ccccc2-c2nnn[nH]2)cc1 [Irbesartan] | -16.2 ± 14.4 | -14.2 ± 17.8 | -18.9 ± 12.4 | -50.7 ± 14.1 | 
O=[N+]([O-])O[C@H]1CO[C@H]2[C@@H]1OC[C@H]2O[N+](=O)[O-] [Isosorbide dinitrate] |  |  |  |  | inhibition at 3 min, 20 µM (OCT2 [1]; human, pH 7.3): -19.5 ± 6.9%; inhibition at 3 min, 200 µM (OCT2 [1]; human, pH 7.3): 21.7 ± 4.4%; inhibition at 3 min, 20 µM (OCT2 [2]; human, pH 7.3): -20.4 ± 5%; inhibition at 3 min, 200 µM (OCT2 [2]; human, pH 7.3): -82.4 ± 8%
COC(=O)C1=C(C)NC(C)=C(C(=O)OC(C)(C)CN(C)CCC(c2ccccc2)c2ccccc2)C1c1cccc([N+](=O)[O-])c1 (stereo not drawn) [Lercanidipine] |  |  |  |  | inhibition at 3 min, 20 µM (OCT2 [1]; [5]): 7.8 ± 3.8%; inhibition at 3 min, 200 µM (OCT2 [1]; [6]): -20.4 ± 11.1%; inhibition at 3 min, 20 µM (OCT2 [2]; [7]): -13.3 ± 8.6%; inhibition at 3 min, 200 µM (OCT2 [2]; [7]): -9.3 ± 3.6%
N[C@@H](Cc1ccc(O)c(O)c1)C(=O)O [Levodopa] | -9.3 ± 6.8 | 67.3 ± 2.6 | -24.6 ± 0.5 | 11.8 ± 1.4 | 
N[C@@H](Cc1cc(I)c(Oc2cc(I)c(O)c(I)c2)c(I)c1)C(=O)O [Levothyroxine] |  |  |  |  | inhibition at 3 min, 20 µM (OCT2 [1]; [5]): 0.8 ± 9.6%; inhibition at 3 min, 200 µM (OCT2 [1]; [6]): 14.3 ± 15.2%; inhibition at 3 min, 20 µM (OCT2 [2]; [7]): 3.6 ± 4.1%; inhibition at 3 min, 200 µM (OCT2 [2]; [7]): -3.3 ± 10.3%
